pIC50: −log10 of the molar value.

The test system of the first experiment is Lox-IMVI melanoma cell line. Briefly: Lox-IMVI anti-proliferative assay (growth inhibition, Cell Titer-Glo). The note with it: Homo sapiens; IC50 activity level in the cell-based Lox-IMVI anti-proliferative assay; read-out: Activity. It counts as cell-based, human. In short, it runs like this:
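First, compound was dispensed as a 10-point 3-fold series (0.5 nM–10 μM, duplicate). Then cells in RPMI + 10% FBS were added and grown 72 h at 37 °C with 0.2% DMSO. Finally, ATP luminescence was read and IC50 calculated versus DMSO control.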
(In general: ATP-based viability assays read luminescence as a measure of living cells.)
With `NC(=O)[C@H]1CC[C@@H](n2c(Nc3c(Cl)cc(Cl)cc3Cl)nc3cnc(N[C@@H]4CCOC[C@H]4F)nc32)CC1` [Example 274, (1S,4s)-4-(2-((3S,4R)-3-fluorotetrahydro-2H-pyran-4-ylamino)-8-(2,4,6-trichlorophenylamino)-9H-purin-9-yl)cyclohexanecarboxamide], the pIC50 was more than 6.60. For `C[C@@H]1CC[C@@H](Nc2ncc3nc(Nc4c(F)cc(F)cc4Cl)n([C@H]4CC[C@@H](C(N)=O)CC4)c3n2)C[C@H]1O` [Example 344, (1S,4s)-4-(8-(2-chloro-4,6-difluorophenylamino)-2-((1R,3R,4R)-3-hydroxy-4-methylcyclohexylamino)-9H-purin-9-yl)cyclohexanecarboxamide], the pIC50 is less than 6.00. As for `NC(=O)[C@H]1CC[C@@H](n2c(Nc3ccc(Cl)cc3F)nc3cnc(NC4CCOCC4)nc32)CC1` [Example 60, (1s,4s)-4-(8-(4-chloro-2-fluorophenylamino)-2-(tetrahydro-2H-pyran-4-ylamino)-9H-purin-9-yl)cyclohexanecarboxamide], the pIC50 is 6.00 to 6.30. Take `NC(=O)[C@H]1CC[C@@H](n2c(Nc3c(F)cc(Cl)cc3F)nc3cnc(N[C@@H]4CCCOC4)nc32)CC1` [Example 188, (1S,4s)-4-(8-(4-chloro-2,6-difluorophenylamino)-2-((R)-tetrahydro-2H-pyran-3-ylamino)-9H-purin-9-yl)cyclohexanecarboxamide]: the pIC50 is less than 6.00.

`COc1ccc(Nc2nc3cnc(NC4CCOCC4)nc3n2[C@H]2CC[C@@H](C(N)=O)CC2)c(F)c1F` [Example 380, (1s,4s)-4-(8-(2,3-difluoro-4-methoxyphenylamino)-2-(tetrahydro-2H-pyran-4-ylamino)-9H-purin-9-yl)cyclohexanecarboxamide]: the pIC50 is less than 6.00.

As for `CC[C@H](CO)Nc1ncc2nc(Nc3c(Cl)cc(F)cc3Cl)n([C@H]3CC[C@@H](C(N)=O)CC3)c2n1` [Example 126, (1S,4s)-4-(8-(2,6-dichloro-4-fluorophenylamino)-2-((R)-1-hydroxybutan-2-ylamino)-9H-purin-9-yl)cyclohexanecarboxamide], the pIC50 was less than 6.00. Turning to `NC(=O)[C@H]1CC[C@@H](n2c(Nc3c(F)cc(Cl)cc3F)nc3cnc(N[C@@H]4CCC[C@H]4O)nc32)CC1` [Example 257, (1S,4s)-4-(8-(4-chloro-2,6-difluorophenylamino)-2-((1R,2R)-2-hydroxycyclopentylamino)-9H-purin-9-yl)cyclohexanecarboxamide], the pIC50 is 6.00 to 6.30.

As for `NC(=O)[C@H]1CC[C@@H](n2c(Nc3c(F)cc(Cl)cc3Cl)nc3cnc(NC4CCOCC4)nc32)CC1` [Example 40], the pIC50 was more than 6.60. For `NC(=O)[C@H]1CC[C@@H](n2c(Nc3c(F)cc(F)cc3F)nc3cnc(N[C@@H]4CCOC[C@H]4F)nc32)CC1` [Example 276, (1S,4s)-4-(2-((3S,4R)-3-fluorotetrahydro-2H-pyran-4-ylamino)-8-(2,4,6-trifluorophenylamino)-9H-purin-9-yl)cyclohexanecarboxamide], the pIC50 is more than 6.60. For the compound `NC(=O)[C@H]1CC[C@@H](n2c(Nc3c(F)cc(Cl)cc3Cl)nc3cnc(NC4CCCC4)nc32)CC1` [Example 122, (1s,4s)-4-(2-(cyclopentylamino)-8-(2,4-dichloro-6-fluorophenylamino)-9H-purin-9-yl)cyclohexanecarboxamide], the pIC50 is 6.30 to 6.60. Take `NC(=O)[C@H]1CC[C@@H](n2c(Nc3c(F)cc(Cl)cc3F)nc3cnc(NC4CCS(=O)(=O)CC4)nc32)CC1` [Example 156, (1s,4s)-4-(8-((4-chloro-2,6-difluorophenyl)amino)-2-((1,1-dioxidotetrahydro-2H-thiopyran-4-yl)amino)-9H-purin-9-yl)cyclohexane-1-carboxamide]: the pIC50 is less than 6.00. Turning to `NC(=O)[C@H]1CC[C@@H](n2c(Nc3c(Cl)cc(Cl)cc3Cl)nc3cnc(N[C@H]4CCC[C@@H]4O)nc32)CC1` [Example 270, (1R,4s)-4-(2-((1S,2S)-2-hydroxycyclopentylamino)-8-(2,4,6-trichlorophenylamino)-9H-purin-9-yl)cyclohexanecarboxamide], the pIC50 was less than 6.00. Same read-out and setting: next, `NC(=O)[C@H]1CC[C@@H](n2c(Nc3c(F)cc(Cl)cc3Cl)nc3cnc(NC4CCS(=O)(=O)CC4)nc32)CC1` [Example 157, (1s,4s)-4-(8-((2,4-dichloro-6-fluorophenyl)amino)-2-((1,1-dioxidotetrahydro-2H-thiopyran-4-yl)amino)-9H-purin-9-yl)cyclohexane-1-carboxamide]: less than 6.00.

Take `C[C@@H](CO)Nc1ncc2nc(Nc3c(F)cc(F)cc3F)n([C@H]3CC[C@@H](C(N)=O)CC3)c2n1` [Example 164, (1R,4s)-4-(2-((S)-1-hydroxypropan-2-ylamino)-8-(2,4,6-trifluorophenylamino)-9H-purin-9-yl)cyclohexanecarboxamide]: the pIC50 was less than 6.00.

Staying with this experiment, now noted: Homo sapiens; Lox-IMVI anti-proliferative assay, IC50 activity level; read-out: Activity.
Turning to `NC(=O)[C@H]1CC[C@@H](n2c(Nc3c(Cl)cc(Cl)cc3Cl)nc3cnc(NC4CCCOCC4)nc32)CC1` (stereo partly drawn) [Example 539, (1s,4s)-4-(2-(oxepan-4-ylamino)-8-(2,4,6-trichlorophenylamino)-9H-purin-9-yl)cyclohexanecarboxamide], the pIC50 is more than 6.60. `C[C@]1(C(N)=O)CC[C@@H](n2c(Nc3c(F)cc(C#N)cc3Cl)nc3cnc(NC4CCOCC4)nc32)CC1` [Example 525, (1s,4s)-4-(8-(2-chloro-4-cyano-6-fluorophenylamino)-2-(tetrahydro-2H-pyran-4-ylamino)-9H-purin-9-yl)-1-methylcyclohexanecarboxamide]: the pIC50 is more than 6.60. In the case of `C[C@]1(C(N)=O)CC[C@@H](n2c(Nc3c(Cl)cc(C#N)cc3Cl)nc3cnc(N[C@@H]4CCC[C@H](O)C4)nc32)CC1` [Example 569, (1S,4s)-4-(8-(2,6-dichloro-4-cyanophenylamino)-2-((1R,3S)-3-hydroxycyclohexylamino)-9H-purin-9-yl)-1-methylcyclohexanecarboxamide], the pIC50 is more than 6.60. Still for that read-out and setting: the same measure for `C[C@H]1COCC[C@@H]1Nc1ncc2nc(Nc3c(F)cc(Cl)cc3Cl)n([C@H]3CC[C@@H](C(N)=O)CC3)c2n1` [Example 504, (1R,4s)-4-(8-(2,4-dichloro-6-fluorophenylamino)-2-((3R,4S)-3-methyltetrahydro-2H-pyran-4-ylamino)-9H-purin-9-yl)cyclohexanecarboxamide]: 6.00 to 6.30; for `C[C@@H]1COCC[C@H]1Nc1ncc2nc(Nc3c(Cl)cc(Cl)cc3Cl)n([C@H]3CC[C@@H](C(N)=O)CC3)c2n1` [Example 499, (1S,4s)-4-(2-((3S,4R)-3-methyltetrahydro-2H-pyran-4-ylamino)-8-(2,4,6-trichlorophenylamino)-9H-purin-9-yl)cyclohexanecarboxamide]: more than 6.60. In the case of `NC(=O)[C@H]1CC[C@@H](n2c(Nc3c(F)cc(F)cc3F)nc3cnc(N[C@@H]4CCC(F)(F)C4)nc32)CC1` [Example 545, (1S,4s)-4-(2-((R)-3,3-difluorocyclopentylamino)-8-(2,4,6-trifluorophenylamino)-9H-purin-9-yl)cyclohexanecarboxamide], the pIC50 is more than 6.60. `C[C@]1(C(N)=O)CC[C@@H](n2c(Nc3c(F)cc(F)cc3F)nc3cnc(N[C@@H]4CCC[C@H](O)C4)nc32)CC1` [Example 563, (1S,4s)-4-(2-((1R,3S)-3-hydroxycyclohexylamino)-8-(2,4,6-trifluorophenylamino)-9H-purin-9-yl)-1-methylcyclohexanecarboxamide]: the pIC50 was less than 6.00. On the same count and under the same terms, the same measure for `NC(=O)[C@H]1CC[C@@H](n2c(Nc3c(F)cccc3F)nc3cnc(N[C@@H]4CCC[C@@H](O)C4)nc32)CC1` [Example 419, (1S,4s)-4-(8-(2,6-difluorophenylamino)-2-((1R,3R)-3-hydroxycyclohexylamino)-9H-purin-9-yl)cyclohexanecarboxamide]: less than 6.00.

Still in this experiment, the particulars now being: Homo sapiens; Lox-IMVI melanoma cell line, anti-proliferative assay; read-out: Activity (IC50 activity level).
In the case of `C[C@]1(C(N)=O)CC[C@@H](n2c(Nc3c(F)cc(F)cc3F)nc3cnc(N[C@@H]4CC[C@@H](O)C4)nc32)CC1` [Example 634, (1S,4s)-4-(2-((1R,3R)-3-hydroxycyclopentylamino)-8-(2,4,6-trifluorophenylamino)-9H-purin-9-yl)-1-methylcyclohexanecarboxamide], the pIC50 is 6.00 to 6.30. As for `CC(C)OC(=O)N1CCC[C@@H](Nc2ncc3nc(Nc4c(Cl)cc(Cl)cc4Cl)n([C@H]4CC[C@@H](C(N)=O)CC4)c3n2)C1` [Example 768, (R)-isopropyl 3-(9-((1s,4S)-4-carbamoylcyclohexyl)-8-(2,4,6-trichlorophenylamino)-9H-purin-2-ylamino)piperidine-1-carboxylate], the pIC50 is 6.00 to 6.30. With `N#Cc1cc(F)c(Nc2nc3cnc(N[C@@H]4CCCN(c5ccccc5)C4)nc3n2[C@H]2CC[C@@H](C(N)=O)CC2)c(F)c1` [Example 745, (1S,4s)-4-(8-(4-cyano-2,6-difluorophenylamino)-2-((R)-1-phenylpiperidin-3-ylamino)-9H-purin-9-yl)cyclohexanecarboxamide], the pIC50 was less than 6.00.

As for `N#Cc1cc(F)c(Nc2nc3cnc(N[C@@H]4CCC[C@@H](O)C4)nc3n2[C@H]2CC[C@@H](C(N)=O)CC2)c(Cl)c1` [Example 685, (1S,4s)-4-(8-(2-chloro-4-cyano-6-fluorophenylamino)-2-((1R,3R)-3-hydroxycyclohexylamino)-9H-purin-9-yl)cyclohexanecarboxamide], the pIC50 was 6.00 to 6.30. On to `C[C@]1(C(N)=O)CC[C@@H](n2c(Nc3c(F)cc(F)cc3F)nc3cnc(NC4CCC4)nc32)CC1` [Example 607, (1s,4s)-4-(2-(cyclobutylamino)-8-(2,4,6-trifluorophenylamino)-9H-purin-9-yl)-1-methylcyclohexanecarboxamide], for which the pIC50 was more than 6.60.

For the origin of these results see US11590139B2, “Substituted aminopurine compounds, compositions thereof, and methods of treatment therewith” (Signal Pharmaceuticals, LLC, priority 2014, dated 2023).
